We go through 27 molecules from ChEMBL document CHEMBL1141868, “Synthesis, biological activity, and X-ray crystal structural analysis of diaryl ether inhibitors of malarial enoyl acyl carrier protein reductase. Part 1: 4'-substituted triclosan derivatives” (Bioorg Med Chem Lett, 2005).

The test system of test [1] is Plasmodium falciparum. Kind of test: Inhibition of drug-sensitive Plasmodium falciparum 3D7 after 72 hrs. Format: functional, organism-based. To be noted: 3D7, 72 h.
The test system of test [2] is Plasmodium falciparum. Kind of test: Inhibition of drug-resistant Plasmodium falciparum Dd2 after 72 hrs. Format: functional, organism-based. To be noted: Dd2, 72 h.
The target in test [3] is T1, Enoyl-acyl-carrier protein reductase (Plasmodium falciparum, UniProt Q965D5).
T1 sequence (Q965D5 whole entry): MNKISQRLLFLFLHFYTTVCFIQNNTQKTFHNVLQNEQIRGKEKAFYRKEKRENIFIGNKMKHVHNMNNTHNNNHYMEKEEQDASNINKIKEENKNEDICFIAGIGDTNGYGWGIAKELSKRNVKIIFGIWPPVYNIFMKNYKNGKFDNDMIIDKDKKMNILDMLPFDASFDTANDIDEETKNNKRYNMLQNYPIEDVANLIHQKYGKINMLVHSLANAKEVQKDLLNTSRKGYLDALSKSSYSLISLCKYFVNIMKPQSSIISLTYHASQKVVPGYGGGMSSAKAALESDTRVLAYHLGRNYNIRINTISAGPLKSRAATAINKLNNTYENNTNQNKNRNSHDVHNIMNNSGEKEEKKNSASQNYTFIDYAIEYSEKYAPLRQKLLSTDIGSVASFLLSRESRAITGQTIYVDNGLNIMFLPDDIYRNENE
Nature of the test: Inhibition of PfENR enzymatic activity.

Structures are written as SMILES.

One may read the EC50 as the concentration giving half of the maximal effect. A word on the IC50: it is the midpoint of a concentration-inhibition curve. In the case of `O=C(Nc1ccc(Oc2ccc(Cl)cc2O)c(Cl)c1)c1ccccc1`, the EC50 in the test with Plasmodium falciparum [1] stood at 57.2 µM; in the test on Plasmodium falciparum [2] it was 83.9 µM. For the same molecule, inhibition in test [3] was half-maximal at 170 nM (IC50).

As to `O=C(c1ccc(Oc2ccc(Cl)cc2O)c(Cl)c1)N1CCCCC1`, the EC50 is 11.7 µM in the test on Plasmodium falciparum [1] and 18 µM in the test on Plasmodium falciparum [2]. In addition, in test [3], the IC50 was determined as 680 nM.

As to `CC(=O)Nc1ccc(Oc2ccc(Cl)cc2O)c(Cl)c1`, the EC50 in the test on Plasmodium falciparum [1] was determined as 52.2 µM; in the test with Plasmodium falciparum [2] it was 50.9 µM. In addition, in test [3], inhibition was half-maximal at 57 nM (IC50).

As to `O=C(c1ccc(Oc2ccc(Cl)cc2O)c(Cl)c1)N1CCCC1`, the values for the EC50 in the test on Plasmodium falciparum [1] and in the test on Plasmodium falciparum [2] were 20.7 µM and 42.6 µM, respectively. Moreover, the IC50 in test [3] turned out to be 810 nM.

For `O=C(NO)c1ccc(Oc2ccc(Cl)cc2O)c(Cl)c1`, the EC50 stood at 31.2 µM in the test on Plasmodium falciparum [1] and 30.6 µM in the test on Plasmodium falciparum [2]. Further, in test [3], inhibition was half-maximal at 1200 nM (IC50).

Take `N#Cc1ccc(Oc2ccc(Cl)cc2O)c(Cl)c1`: the EC50 stood at 3.9 µM in the test with Plasmodium falciparum [1] and 5.4 µM in the test on Plasmodium falciparum [2]. In test [3], this molecule gave an IC50 of 120 nM.

As for `O=S(=O)(Nc1ccc(Oc2ccc(Cl)cc2O)c(Cl)c1)c1ccccc1`, the EC50 in the test on Plasmodium falciparum [1] was 55.1 µM; in the test on Plasmodium falciparum [2], 77.5 µM. The molecule further showed an IC50 in test [3] of 370 nM.

For `Oc1cc(Cl)ccc1Oc1ccc(NCc2ccccc2)cc1Cl`, the EC50 is 35.8 µM with Plasmodium falciparum [1] and 47.5 µM in the test on Plasmodium falciparum [2]. In test [3], this molecule registered an IC50 of 140 nM.

Turning to `O=C(c1ccc(Oc2ccc(Cl)cc2O)c(Cl)c1)N1CCOCC1`, the EC50 stood at 63.5 µM in the test on Plasmodium falciparum [1] and 94.5 µM with Plasmodium falciparum [2]. For the same molecule, in test [3], half-maximal inhibition (IC50) required 200 nM.

With `CN(C)C(=O)c1ccc(Oc2ccc(Cl)cc2O)c(Cl)c1`, the values for the EC50 in the test on Plasmodium falciparum [1] and with Plasmodium falciparum [2] were 68.4 µM and 95.7 µM, respectively. This molecule also displayed an IC50 in test [3] of 460 nM.

For the molecule `O=C(Nc1ccc(Oc2ccc(Cl)cc2O)c(Cl)c1)N1CCOCC1`, the figures for the EC50 in the test with Plasmodium falciparum [1] and in the test on Plasmodium falciparum [2] were 66.8 µM and 86.4 µM, respectively. The same molecule came in with an IC50 in test [3] of 250 nM.

On to `NC(=O)Nc1ccc(Oc2ccc(Cl)cc2O)c(Cl)c1`, for which the figures for the EC50 in the test on Plasmodium falciparum [1] and with Plasmodium falciparum [2] were 110 µM and 120 µM, respectively. In test [3], this molecule displayed an IC50 of 160 nM.

On to `N#CCc1ccc(Oc2ccc(Cl)cc2O)c(Cl)c1`, for which the EC50 in the test with Plasmodium falciparum [1] was found to be 23.1 µM; with Plasmodium falciparum [2], 36.4 µM. Further, the IC50 in test [3] is 190 nM.

Take `O=C(NCc1ccccc1)c1ccc(Oc2ccc(Cl)cc2O)c(Cl)c1`: the results for the EC50 in the test on Plasmodium falciparum [1] and with Plasmodium falciparum [2] were 7.5 µM and 20.6 µM, respectively. For the same molecule, the IC50 in test [3] was found to be 3000 nM.

Regarding `O=S(=O)(Nc1ccc(Oc2ccc(Cl)cc2O)c(Cl)c1)c1cccc2ccccc12`, the EC50 in the test on Plasmodium falciparum [1] came out at 34.3 µM; with Plasmodium falciparum [2] it was 43.7 µM. Further, in test [3], the IC50 came out at 590 nM.

With `O=[N+]([O-])c1ccc(Oc2ccc(Cl)cc2O)c(Cl)c1`, the figures for the EC50 in the test on Plasmodium falciparum [1] and in the test on Plasmodium falciparum [2] were 2.1 µM and 3.2 µM, respectively. The IC50 in test [3] turned out to be 180 nM.

As for `NC(=O)c1ccc(Oc2ccc(Cl)cc2O)c(Cl)c1`, the EC50 was determined as 96.3 µM in the test with Plasmodium falciparum [1] and 100 µM in the test with Plasmodium falciparum [2]. This molecule also returned an IC50 in test [3] of 120 nM.

With `O=S(=O)(Nc1ccc(Oc2ccc(Cl)cc2O)c(Cl)c1)C(F)(F)F`, the EC50 with Plasmodium falciparum [1] and in the test on Plasmodium falciparum [2] was above 120 µM in each case. For the same molecule, the IC50 in test [3] was 140 nM.

For `Oc1ccccc1CNc1ccc(Oc2ccc(Cl)cc2O)c(Cl)c1`, the half-maximal effective concentration (EC50) in the test on Plasmodium falciparum [1] turned out to be 4.5 µM; in the test with Plasmodium falciparum [2], 5.6 µM. The same molecule gave an IC50 in test [3] of 320 nM.

With `N#Cc1ccccc1CNc1ccc(Oc2ccc(Cl)cc2O)c(Cl)c1`, the EC50 in the test with Plasmodium falciparum [1] was found to be 26.7 µM; in the test with Plasmodium falciparum [2] it was 45.4 µM. Besides, 560 nM corresponded to half-maximal inhibition in test [3] (IC50).

For the molecule `CNC(=O)c1ccc(Oc2ccc(Cl)cc2O)c(Cl)c1`, the EC50 worked out at 77.8 µM with Plasmodium falciparum [1] and 100 µM in the test on Plasmodium falciparum [2]. For the same molecule, inhibition in test [3] was half-maximal at 310 nM (IC50).

Regarding `O=S(=O)(Nc1ccc(Oc2ccc(Cl)cc2O)c(Cl)c1)c1ccc2ccccc2c1`, the EC50 in the test on Plasmodium falciparum [1] is 23.5 µM; in the test with Plasmodium falciparum [2] it was 33.9 µM. This molecule had an IC50 in test [3] of 2500 nM.

Take `Oc1ccc(Oc2ccc(Cl)cc2O)c(Cl)c1`: the EC50 in the test on Plasmodium falciparum [1] was determined as 65.3 µM; in the test on Plasmodium falciparum [2], 87.8 µM. In test [3], this molecule returned an IC50 of 220 nM.

Turning to `Nc1ccc(Oc2ccc(Cl)cc2O)c(Cl)c1`, the EC50 in the test with Plasmodium falciparum [1] came to 120 µM; with Plasmodium falciparum [2], 140 µM. The molecule further displayed an IC50 in test [3] of 360 nM.

In the case of `O=C(O)c1ccc(Oc2ccc(Cl)cc2O)c(Cl)c1`, the EC50 with Plasmodium falciparum [1] was 110 µM; with Plasmodium falciparum [2] it was 130 µM. This molecule also returned an IC50 in test [3] of 550 nM.

`Oc1cc(Cl)ccc1Oc1ccc(Cl)cc1Cl` [TRICLOSAN]: the EC50 in the test on Plasmodium falciparum [1] came to 2.9 µM; with Plasmodium falciparum [2], 3.9 µM. The same molecule yielded an IC50 in test [3] of 73 nM.

For `Oc1cc(Cl)ccc1Oc1ccc(-c2nn[nH]n2)cc1Cl`, the EC50 in the test on Plasmodium falciparum [1] was 120 µM; with Plasmodium falciparum [2], above 150 µM. Further, half-maximal inhibition in test [3] (IC50) required 413 nM.
